Data reported in patent publication US9018263B2, “Antimicrobial compositions comprising trimethylene glycol oligomer and methods of using the compositions” (E I du Pont de Nemours and Company, priority 2010, dated 2015).

How the values were obtained:
[1] = test system: Escherichia coli ATCC 8739; test: Example 4: di(1,3-propanediol) and DPG, plate counts; assay type: cell-based; settings: for CFU/mL: E. coli inoculum
Method: (§1) Two test microorganisms were used, the Gram-negative bacterium, Escherichia coli ATCC 8739, and the Gram-positive bacterium, Staphylococcus aureus ATCC 6538. These microrganisms were grown overnight in 10 mL Tryptic soy broth (TSB) starter cultures, and then inoculated into Klett flasks containing 30 mL of TSB. The Klett flasks were incubated on an incubator shaker at 37° C. until the desired Klett reading was obtained (early stationary phase). Each test inoculum was prepared by adding 0.1 mL of the Klett flask culture to 9.9 mL of Mueller-Hinton II Broth (cation-adjusted) or M9 Broth.
(§2) The unfractionated mixture, each fraction, a control, and DPG (comparative example) were analyzed for antibacterial or bacteristatic properties against E. coli according to the protocol shown below. Numbers in exponential format are indicated with “E”, i.e. 2.2×10^+9 are written as 2.2E+09.

[2] = test system: Staphylococcus aureus ATCC 6538; test: as above; assay type: cell-based; settings: for CFU/mL: S. aureus inoculum; for effect on gram positive bacteria (in words): S. aureus
Method: [The source words this procedure for another target and reports this target under the same test.] as §1, §2

Compound | CFU/mL ([1]; Conc. 0.1%) [CFU/mL] | CFU/mL ([1]; Conc. 0.5%) [CFU/mL] | CFU/mL ([1]; Conc. 1%) [CFU/mL] | CFU/mL ([1]; Conc. 10%) [CFU/mL] | CFU/mL ([2]; Conc. 0.1%) [CFU/mL] | CFU/mL ([2]; Conc. 0.5%) [CFU/mL] | CFU/mL ([2]; Conc. 1%) [CFU/mL] | CFU/mL ([2]; Conc. 10%) [CFU/mL] | effect on gram positive bacteria (in words) ([2]; 0.1 to 10%) | effect on gram negative bacteria (in words) ([1]; E. coli, concentrations of 0.5% and 1%) | effect on gram positive bacteria (in words) ([2]; concentrations of 0.5% and 1%)
1,2-dipropaneglycol [DPG] | 2.1E+08 | 2.9E+08 | 3.7E+08 | 1.5E+05 | 2.0E+07 | 2.0E+07 | 2.0E+07 | 2.1E+07 | little or no antibacterial or bacteristatic effect | – | –
OCCCOCCCO [PDO Dimer, di(1,3-propanediol)] | 3.2E+08 | 7.6E+02 | <10 | – | 2.7E+07 | 1.4E+04 | 1.6E+03 | – | – | kills or inhibits the growth | kills or inhibits the growth
